Organism: Rattus norvegicus
Assay: DrugMatrix - Regimen: Daily Repeat
Format: toxicity, organism-based, Sprague-Dawley
Set-up: regimen Daily Repeat, gender Male, age 6-8 weeks
Conditions: in vivo, po, route oral GAVAGE, vehicle .5 % CMC; for ABSOLUTE BASOPHIL / ABSOLUTE EOSINOPHIL / ABSOLUTE LYMPHOCYTE / ABSOLUTE MONOCYTE / ABSOLUTE SEGMENTED NEUTROPHIL / BASOPHIL / EOSINOPHIL / ERYTHROCYTE COUNT / HEMATOCRIT / HEMOGLOBIN / LEUKOCYTE COUNT / LYMPHOCYTE / MEAN CORPUSCULAR HEMOGLOBIN / MEAN CORPUSCULAR HEMOGLOBIN CONCENTRATION / MEAN CORPUSCULAR VOLUME / MONOCYTE / NEUTROPHIL / NUCLEATED RED BLOOD CELLS / PLATELET COUNT: tissue Blood; for ALANINE AMINOTRANSFERASE / ALBUMIN / ALKALINE PHOSPHATASE / ASPARTATE AMINOTRANSFERASE / BLOOD UREA NITROGEN / CARBON DIOXIDE / CHLORIDE / CHOLESTEROL / CREATINE PHOSPHOKINASE / CREATININE / GLUCOSE / LACTATE DEHYDROGENASE / LIPASE / PHOSPHORUS / POTASSIUM / SODIUM / TOTAL BILIRUBIN / TOTAL PROTEIN / URIC ACID: tissue Plasma
[1] = 2500 mg/kg, 120 h, dose level High, time 5 day
[2] = […], 72 h, dose 5.4 mg/Kg, dose level Low, time 3 day
[3] = […], 120 h, dose 5.4 mg/Kg, dose level Low, time 5 day

In the case of CN1CCC[C@@H]1CCO[C@](C)(c1ccccc1)c1ccc(Cl)cc1 [CLEMASTINE], the “ABSOLUTE BASOPHIL” value [1] was 0 CELLS/uL, the “ABSOLUTE EOSINOPHIL” value [1] was 0 CELLS/uL and the “ABSOLUTE LYMPHOCYTE” value [1] was 7767.5 CELLS/uL. For the same compound, the “ABSOLUTE MONOCYTE” value [1] was 575 CELLS/uL, the “ABSOLUTE SEGMENTED NEUTROPHIL” value [1] was 8407.5 CELLS/uL and the BASOPHIL [1] was 0%. The EOSINOPHIL [1] was 0%, the “ERYTHROCYTE COUNT” value [1] was 7.67 x10E6/uL and the HEMATOCRIT [1] was 45.5%. The HEMOGLOBIN [1] was 18 G/DL, the “LEUKOCYTE COUNT” value [1] was 16.75 x10E3/uL and the LYMPHOCYTE [1] was 45.5%. For the same compound, the “MEAN CORPUSCULAR HEMOGLOBIN” value [1] was 23.5 pg, the “MEAN CORPUSCULAR HEMOGLOBIN CONCENTRATION” value [1] was 39.55 G/DL and the “MEAN CORPUSCULAR VOLUME” value [1] was 59.4 fL. For the same compound, the MONOCYTE [1] was 3.5%, the NEUTROPHIL [1] was 51% and the “NUCLEATED RED BLOOD CELLS” value [1] was 0 /100WBC. The “PLATELET COUNT” value [1] was 1417 x10E3/uL, the “ALANINE AMINOTRANSFERASE” value [1] was 189 u/L and the ALBUMIN [1] was 3.45 G/DL. The “ALKALINE PHOSPHATASE” value [1] was 274 u/L, the “ASPARTATE AMINOTRANSFERASE” value [1] was 822.5 u/L and the “BLOOD UREA NITROGEN” value [1] was 37 mg/dL. The “CARBON DIOXIDE” value [1] was 21.5 mmol/L, the CHLORIDE [1] was 84 MEQ/L and the CHOLESTEROL [1] was 24 mg/dL. For the same compound, the “CREATINE PHOSPHOKINASE” value [1] was 1389.5 u/L, the CREATININE [1] was 0.24 mg/dL and the GLUCOSE [1] was 68.5 mg/dL. For the same compound, the “LACTATE DEHYDROGENASE” value [1] was 1904 u/L, the LIPASE [1] was 11 u/L and the PHOSPHORUS [1] was 22.25 mg/dL. The POTASSIUM [1] was 6.91 MEQ/L, the SODIUM [1] was 139.35 MEQ/L and the “TOTAL BILIRUBIN” value [1] was 0.25 mg/dL. For the same compound, the “TOTAL PROTEIN” value [1] was 5.3 G/DL, the “URIC ACID” value [1] was 6.55 mg/dL and the “ABSOLUTE BASOPHIL” value [2] was 0 CELLS/uL. For the same compound, the “ABSOLUTE EOSINOPHIL” value [2] was 41.67 CELLS/uL, the “ABSOLUTE LYMPHOCYTE” value [2] was 12326.67 CELLS/uL and the “ABSOLUTE MONOCYTE” value [2] was 80.67 CELLS/uL. For the same compound, the “ABSOLUTE SEGMENTED NEUTROPHIL” value [2] was 1517.67 CELLS/uL, the BASOPHIL [2] was 0% and the EOSINOPHIL [2] was 0.33%. For the same compound, the “ERYTHROCYTE COUNT” value [2] was 5.26 x10E6/uL, the HEMATOCRIT [2] was 33.9% and the HEMOGLOBIN [2] was 13.3 G/DL. For the same compound, the “LEUKOCYTE COUNT” value [2] was 13.97 x10E3/uL, the LYMPHOCYTE [2] was 88% and the “MEAN CORPUSCULAR HEMOGLOBIN” value [2] was 25.3 pg. The “MEAN CORPUSCULAR HEMOGLOBIN CONCENTRATION” value [2] was 39.23 G/DL, the “MEAN CORPUSCULAR VOLUME” value [2] was 64.53 fL and the MONOCYTE [2] was 0.67%. The NEUTROPHIL [2] was 11%, the “NUCLEATED RED BLOOD CELLS” value [2] was 0 /100WBC and the “PLATELET COUNT” value [2] was 1091.33 x10E3/uL. For the same compound, the “ALANINE AMINOTRANSFERASE” value [2] was 56 u/L, the ALBUMIN [2] was 4.07 G/DL and the “ALKALINE PHOSPHATASE” value [2] was 313.67 u/L. For the same compound, the “ASPARTATE AMINOTRANSFERASE” value [2] was 78.33 u/L, the “BLOOD UREA NITROGEN” value [2] was 16 mg/dL and the “CARBON DIOXIDE” value [2] was 30 mmol/L. The CHLORIDE [2] was 100.33 MEQ/L, the CHOLESTEROL [2] was 87 mg/dL and the “CREATINE PHOSPHOKINASE” value [2] was 239.33 u/L. For the same compound, the CREATININE [2] was 0.19 mg/dL, the GLUCOSE [2] was 158.67 mg/dL and the “LACTATE DEHYDROGENASE” value [2] was 247.33 u/L. For the same compound, the LIPASE [2] was 9.33 u/L, the PHOSPHORUS [2] was 11.17 mg/dL and the POTASSIUM [2] was 5.9 MEQ/L. For the same compound, the SODIUM [2] was 141.47 MEQ/L, the “TOTAL BILIRUBIN” value [2] was 0.2 mg/dL and the “TOTAL PROTEIN” value [2] was 5.63 G/DL. For the same compound, the “URIC ACID” value [2] was 1.23 mg/dL, the “ABSOLUTE BASOPHIL” value [3] was 0 CELLS/uL and the “ABSOLUTE EOSINOPHIL” value [3] was 52.33 CELLS/uL. For the same compound, the “ABSOLUTE LYMPHOCYTE” value [3] was 12918 CELLS/uL, the “ABSOLUTE MONOCYTE” value [3] was 156.33 CELLS/uL and the “ABSOLUTE SEGMENTED NEUTROPHIL” value [3] was 1306.67 CELLS/uL. For the same compound, the BASOPHIL [3] was 0%, the EOSINOPHIL [3] was 0.33% and the “ERYTHROCYTE COUNT” value [3] was 5.68 x10E6/uL. The HEMATOCRIT [3] was 35.67%, the HEMOGLOBIN [3] was 14.13 G/DL and the “LEUKOCYTE COUNT” value [3] was 14.43 x10E3/uL. The LYMPHOCYTE [3] was 89.33%, the “MEAN CORPUSCULAR HEMOGLOBIN” value [3] was 24.93 pg and the “MEAN CORPUSCULAR HEMOGLOBIN CONCENTRATION” value [3] was 39.67 G/DL. For the same compound, the “MEAN CORPUSCULAR VOLUME” value [3] was 62.87 fL, the MONOCYTE [3] was 1.33% and the NEUTROPHIL [3] was 9%. For the same compound, the “NUCLEATED RED BLOOD CELLS” value [3] was 0.33 /100WBC, the “PLATELET COUNT” value [3] was 866 x10E3/uL and the “ALANINE AMINOTRANSFERASE” value [3] was 51 u/L. The ALBUMIN [3] was 4.57 G/DL, the “ALKALINE PHOSPHATASE” value [3] was 318.67 u/L and the “ASPARTATE AMINOTRANSFERASE” value [3] was 79.67 u/L. For the same compound, the “BLOOD UREA NITROGEN” value [3] was 14 mg/dL, the “CARBON DIOXIDE” value [3] was 30.33 mmol/L and the CHLORIDE [3] was 101.33 MEQ/L. The CHOLESTEROL [3] was 68.33 mg/dL, the “CREATINE PHOSPHOKINASE” value [3] was 200.33 u/L and the CREATININE [3] was 0.16 mg/dL. The GLUCOSE [3] was 155.33 mg/dL, the “LACTATE DEHYDROGENASE” value [3] was 118.67 u/L and the LIPASE [3] was 10 u/L. For the same compound, the PHOSPHORUS [3] was 10.77 mg/dL, the POTASSIUM [3] was 6.13 MEQ/L and the SODIUM [3] was 141.6 MEQ/L. For the same compound, the “TOTAL BILIRUBIN” value [3] was 0.2 mg/dL, the “TOTAL PROTEIN” value [3] was 6.3 G/DL and the “URIC ACID” value [3] was 1.47 mg/dL.
